Common to all, as to assay type: in vivo
The test system of assay [1] is Veronica persica. Put plainly: Pre-emergence herbicidal action against weed plants (greenhouse pot test). The note with it: application rate 320 g/ha, scored visually after 3 weeks vs untreated controls, 100% = plants have died, 0% = like control plants. The text has this:
(§1) Seeds of mono- and dicotyledonous weed and crop plants are set out in wood fiber pots in sandy loam soil and covered with soil. The inventive compounds formulated in the form of wettable powders (WP) or as emulsion concentrates (EC) are then applied to the surface of the covering earth as an aqueous suspension or emulsion at a water application rate of 600 to 800 l/ha (converted) with addition of 0.2% wetting agent. After the treatment, the pots are placed in a greenhouse and kept under good growth conditions for the test plants. The damage to the test plants is scored visually after an experiment time of 3 weeks in comparison to untreated controls (herbicidal action in percent (%): 100% action=plants have died, 0% action=like control plants).

Assay [2] has as its system Veronica persica. Put plainly: Post-emergence herbicidal action against weed plants (greenhouse pot test). The note with it: one-leaf stage, application rate 320 g/ha, scored visually after about 3 weeks vs untreated controls, 100% = plants have died. As to the method:
(§2) Seeds of mono- and dicotyledonous weed and crop plants are set out in wood fiber pots in sandy loam soil, covered with soil and cultivated in a greenhouse under good growth conditions. 2 to 3 weeks after sowing, the trial plants are treated at the one-leaf stage. The inventive compounds formulated in the form of wettable powders (WP) or as emulsion concentrates (EC) are then sprayed onto the green plant parts as an aqueous suspension or emulsion with a water application rate of 600 to 800 l/ha (converted) with addition of 0.2% wetting agent. After the trial plants have stood in the greenhouse under optimal growth conditions for about 3 weeks, the action of the preparations is scored visually in comparison to untreated controls (herbicidal action in percent (%): 100% action=plants have died, 0% action=like control plants).

Another assay relates to ABUTH. Described as above. The note with it: one-leaf stage, application rate 320 g/ha, scored visually after about 3 weeks vs untreated controls, 100% = plants have died. As to the method:
as §2

The subject of a further assay is Amaranthus retroflexus. Description: Pre-emergence herbicidal action against weed plants (greenhouse pot test). The note with it: application rate 320 g/ha, scored visually after 3 weeks vs untreated controls, 100% = plants have died, 0% = like control plants.
Excerpt: as §1

The test system of a further assay is Ipomoea purpurea. Put plainly: Post-emergence herbicidal action against weed plants (greenhouse pot test). The note with it: one-leaf stage, application rate 320 g/ha, scored visually after about 3 weeks vs untreated controls, 100% = plants have died. As to the method:
as §2

The source of these data is US8962529B2, “Substituted picolinic acids, salts and acid derivatives thereof, and use thereof as herbicides” (Bayer Cropscience AG, priority 2010, dated 2015).

Structures are written as SMILES.

In the case of `COC(=O)c1nc(-c2ccc(Cl)c(C3CO3)c2F)cc(N)c1Cl` (centres unmarked) [Example 9-618], the “herbicidal action in percent, VERPE” value with Veronica persica [1] is on record as 100%; with Veronica persica [2] it was 90%. In addition, the “herbicidal action in percent, ABUTH” value with ABUTH stood at 80%.
Consider `COC(=O)c1nc(-c2ccc(Cl)c(C3COC(C)(C)O3)c2F)cc(N)c1Cl` (centres unmarked) [Example 9-842], for which the “herbicidal action in percent, VERPE” value in the assay on Veronica persica [1] and with Veronica persica [2] was 100% each time. In addition, the “herbicidal action in percent, AMARE” value with Amaranthus retroflexus was 90%. Further, the “herbicidal action in percent, ABUTH” value with ABUTH is recorded as 80%. Moreover, the “herbicidal action in percent, PHBPU” value with Ipomoea purpurea is 90%.
